From patent publication US10202658B2, “Methods for determining hypersusceptibility of HIV-1 to non-nucleoside reverse transcriptase inhibitors” (Monogram Biosciences, Inc., priority 2005, dated 2019)

Tested on: HIV-1 clinical isolates grouped by RT mutations
Test: Pairwise comparison of NNRTI fold change between groups of clinical isolates (Student's T-test, Bonferroni's Multiple Comparison Test)
Format: cell-based
Experimental: This example provides methods and compositions for identifying mutations that correlate with hypersusceptibility to a NNRTI. Resistance test vectors were constructed and used as described in Example 1. Resistance test vectors derived from patient samples or clones derived from the resistance test vector pools were tested in a resistance assay to determine accurately and quantitatively the relative EFV, DLV, or NVP resistance or susceptibility compared to the median observed resistance or susceptibility.
To identify mutations associated with NNRTI hypersusceptibility, the following analysis was performed. […] The TAMs referenced in. Table 1 include M41L, D67N, K70R, L210W, T215FY, and K219X, while the NAMs referenced include K65R, T69X, L74IV, V75X, and M184IV. Isolates without NRTI, NNRTI or PI mutations served as a wild type (WT) reference group. Further comparison groups comprised isolates with three TAMS including T215Y (+/−H208Y, +/−V118I) or three TAMS including K70R. Scatter plots and statistical tests (See FIGS. 1-6) were generated using Prism 4.0 (GraphPad, San Diego, Calif.)
In addition, a pairwise comparison between two sets of data was conducted using Bonferroni's Multiple Comparison Test using the Prism 4.0 software. The results of the comparison are presented in Tables 2, 3, and 4, appended to the end of this document. Samples with K65R, K65R+M184V, or 2 TAMs in combination with T215Y had over 40% with EFV FC<0.4.

CC(C)Nc1cccnc1N1CCN(C(=O)c2cc3cc(NS(C)(=O)=O)ccc3[nH]2)CC1 [DLV, delavirdine]
Mean Diff. of fold change (1 NAM vs 2 NAMs): 0.2985 | Mean Diff. of fold change (1 NAM vs 3 NAMs): 0.293 | Mean Diff. of fold change (1 NAM vs K65R): 0.3868 | Mean Diff. of fold change (1 NAM vs K65R + M184V): 0.5114 | Mean Diff. of fold change (1 NAM vs K70R_3_TAMs): −0.5755 | Mean Diff. of fold change (1 NAM vs M184V): −0.007762 | Mean Diff. of fold change (1 NAM vs T69): −0.1256 | Mean Diff. of fold change (1 NAM vs T215Y_3_TAMs): 0.6784 | Mean Diff. of fold change (1 NAM vs T215Y_3_TAMs_118): 0.6483 | Mean Diff. of fold change (1 NAM vs T215Y_3_TAMs_208): 0.7831 | Mean Diff. of fold change (1 NAM vs T215Y_3_TAMs_no118): 0.6983 | Mean Diff. of fold change (1 NAM vs T215Y_3_TAMs_no208): 0.6612 | Mean Diff. of fold change (2 NAMs vs 3 NAMs): −0.005498 | Mean Diff. of fold change (2 NAMs vs K65R): 0.08826 | Mean Diff. of fold change (2 NAMs vs K65R + M184V): 0.2128 | Mean Diff. of fold change (2 NAMs vs K70R_3_TAMs): −0.874 | Mean Diff. of fold change (2 NAMs vs M184V): −0.3063 | Mean Diff. of fold change (2 NAMs vs T69): −0.4242 | Mean Diff. of fold change (2 NAMs vs T215Y_3_TAMs): 0.3799 | Mean Diff. of fold change (2 NAMs vs T215Y_3_TAMs_118): 0.3498 | Mean Diff. of fold change (2 NAMs vs T215Y_3_TAMs_208): 0.4845 | Mean Diff. of fold change (2 NAMs vs T215Y_3_TAMs_no118): 0.3997 | Mean Diff. of fold change (2 NAMs vs T215Y_3_TAMs_no208): 0.3627 | Mean Diff. of fold change (3 NAMs vs K65R): 0.09376 | Mean Diff. of fold change (3 NAMs vs K65R + M184V): 0.2183 | Mean Diff. of fold change (3 NAMs vs K70R_3_TAMs): −0.8685 | Mean Diff. of fold change (3 NAMs vs M184V): −0.3008 | Mean Diff. of fold change (3 NAMs vs T69): −0.4187 | Mean Diff. of fold change (3 NAMs vs T215Y_3_TAMs): 0.3854 | Mean Diff. of fold change (3 NAMs vs T215Y_3_TAMs_118): 0.3553 | Mean Diff. of fold change (3 NAMs vs T215Y_3_TAMs_208): 0.49 | Mean Diff. of fold change (3 NAMs vs T215Y_3_TAMs_no118): 0.4052 | Mean Diff. of fold change (3 NAMs vs T215Y_3_TAMs_no208): 0.3682 | Mean Diff. of fold change (K65R + M184V vs K70R_3_TAMs): −1.087 | Mean Diff. of fold change (K65R + M184V vs T215Y_3_TAMs): 0.167 | Mean Diff. of fold change (K65R + M184V vs T215Y_3_TAMs_118): 0.137 | Mean Diff. of fold change (K65R + M184V vs T215Y_3_TAMs_208): 0.2717 | Mean Diff. of fold change (K65R + M184V vs T215Y_3_TAMs_no118): 0.1869 | Mean Diff. of fold change (K65R + M184V vs T215Y_3_TAMs_no208): 0.1499 | Mean Diff. of fold change (K65R vs K65R + M184V): 0.1246 | Mean Diff. of fold change (K65R vs K70R_3_TAMs): −0.9623 | Mean Diff. of fold change (K65R vs M184V): −0.3946 | Mean Diff. of fold change (K65R vs T69): −0.5124 | Mean Diff. of fold change (K65R vs T215Y_3_TAMs): 0.2916 | Mean Diff. of fold change (K65R vs T215Y_3_TAMs_118): 0.2615 | Mean Diff. of fold change (K65R vs T215Y_3_TAMs_208): 0.3963 | Mean Diff. of fold change (K65R vs T215Y_3_TAMs_no118): 0.3115 | Mean Diff. of fold change (K65R vs T215Y_3_TAMs_no208): 0.2744 | Mean Diff. of fold change (K70R_3_TAMs vs T215Y_3_TAMs_118): 1.224 | Mean Diff. of fold change (K70R_3_TAMs vs T215Y_3_TAMs_no118): 1.274 | Mean Diff. of fold change (M184V vs K65R + M184V): 0.5191 | Mean Diff. of fold change (M184V vs K70R_3_TAMs): −0.5677 | Mean Diff. of fold change (M184V vs T69): −0.1179 | Mean Diff. of fold change (M184V vs T215Y_3_TAMs): 0.6862 | Mean Diff. of fold change (M184V vs T215Y_3_TAMs_118): 0.6561 | Mean Diff. of fold change (M184V vs T215Y_3_TAMs_208): 0.7908 | Mean Diff. of fold change (M184V vs T215Y_3_TAMs_no118): 0.706 | Mean Diff. of fold change (M184V vs T215Y_3_TAMs_no208): 0.669 | Mean Diff. of fold change (T69 vs K65R + M184V): 0.637 | Mean Diff. of fold change (T69 vs K70R_3_TAMs): −0.4499 | Mean Diff. of fold change (T69 vs T215Y_3_TAMs): 0.8041 | Mean Diff. of fold change (T69 vs T215Y_3_TAMs_118): 0.774 | Mean Diff. of fold change (T69 vs T215Y_3_TAMs_208): 0.9087 | Mean Diff. of fold change (T69 vs T215Y_3_TAMs_no118): 0.8239 | Mean Diff. of fold change (T69 vs T215Y_3_TAMs_no208): 0.7869 | Mean Diff. of fold change (T215Y_3_TAMs vs K70R_3_TAMs): −1.254 | Mean Diff. of fold change (T215Y_3_TAMs vs T215Y_3_TAMs_118): −0.03008 | Mean Diff. of fold change (T215Y_3_TAMs vs T215Y_3_TAMs_208): 0.1046 | Mean Diff. of fold change (T215Y_3_TAMs vs T215Y_3_TAMs_no118): 0.01984 | Mean Diff. of fold change (T215Y_3_TAMs vs T215Y_3_TAMs_no208): −0.01718 | Mean Diff. of fold change (T215Y_3_TAMs_208 vs K70R_3_TAMs): −1.359 | Mean Diff. of fold change (T215Y_3_TAMs_208 vs T215Y_3_TAMs_118): −0.1347 | Mean Diff. of fold change (T215Y_3_TAMs_208 vs T215Y_3_TAMs_no118): −0.0848 | Mean Diff. of fold change (T215Y_3_TAMs_208 vs T215Y_3_TAMs_no208): −0.1218 | Mean Diff. of fold change (T215Y_3_TAMs_no118 vs T215Y_3_TAMs_118): −0.04992 | Mean Diff. of fold change (T215Y_3_TAMs_no208 vs K70R_3_TAMs): −1.237 | Mean Diff. of fold change (T215Y_3_TAMs_no208 vs T215Y_3_TAMs_118): −0.0129 | Mean Diff. of fold change (T215Y_3_TAMs_no208 vs T215Y_3_TAMs_no118): 0.03702 | mean fold change (FC) compared to the WT population (all groups containing NAMs or the combination of TAMs shown in Table 1, p<0.0001, Student's T-test): significantly lower | Mean Diff. of fold change (wt vs 1 NAM): 0.3819 | Mean Diff. of fold change (wt vs 2 NAMs): 0.6804 | Mean Diff. of fold change (wt vs 3 NAMs): 0.6749 | Mean Diff. of fold change (wt vs K65R): 0.7687 | Mean Diff. of fold change (wt vs K65R + M184V): 0.8932 | Mean Diff. of fold change (wt vs K70R_3_TAMs): −0.1936 | Mean Diff. of fold change (wt vs M184V): 0.3741 | Mean Diff. of fold change (wt vs T69): 0.2562 | Mean Diff. of fold change (wt vs T215Y_3_TAMs): 1.06 | Mean Diff. of fold change (wt vs T215Y_3_TAMs_118): 1.03 | Mean Diff. of fold change (wt vs T215Y_3_TAMs_208): 1.165 | Mean Diff. of fold change (wt vs T215Y_3_TAMs_no118): 1.08 | Mean Diff. of fold change (wt vs T215Y_3_TAMs_no208): 1.043
